A word on the IC50: it is the concentration at which inhibition is half-maximal.

In this assay the test system is human primary T-cells, IL-2 stimulated proliferation (JAK-1 and JAK-3 dependent; reported as JAK3 activity). Briefly: Human primary T-cell proliferation stimulated by IL-2 (Example 3). The settings on record: tested under conditions described in Example 3 (IL-2 stimulated human primary T-cell proliferation), read-out: ability to inhibit JAK3 activity, IC50 range (Table V). Format: cell-based. The procedure, abridged: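 Peripheral-blood human T-cells pre-activated via TCR/CD28, IL-2-starved overnight, then cultured 72 h at 37 °C with compound in Yssel's medium containing IL-2 (80 U/mL in cell suspension). Proliferation read as viable-cell ATP by CellTiter-Glo luminescence; reduction versus control taken as JAK pathway inhibition.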

Where a name gives a salt, the structure may show the parent alone. Read-outs that look alike come from different tables or passages of the source.

For the molecule `Cc1ccc(Nc2ncc(C)c(Nc3ccc4oc(=O)n(C)c4c3)n2)cc1NS(C)(=O)=O` [Compound I-82, N2-((3-methylsulfonylamino-4-methyl)phenyl)-N4-(3-methyl-2-oxo-2,3-dihydrobenzo[d]oxazol-5-yl)-5-methylpyrimidine-2,4-diamine], the half-maximal inhibitory concentration (IC50) was < 500 nM.
As for `CN[C@@H]1CCCN(c2ccc(Nc3ncc(C)c(Nc4ccc5oc(=O)[nH]c5c4)n3)cn2)C1` [II-88, (R)-5-(5-methyl-2-(6-(3-(methylamino)piperidin-1-yl)pyridin-3-ylamino)pyrimidin-4-ylamino)benzo[d]oxazol-2(3H)-one], where the note is “Homo sapiens, T-cell”, the IC50 is < 500 nM.
Turning to `Cn1c(=O)oc2cc(Nc3nc(Nc4ccc(F)c(NS(C)(=O)=O)c4)ncc3F)ccc21` [Compound I-92, N2-((4-fluoro-3-methylsulfonylamino)phenyl)-N4-(3-methyl-2-oxo-2,3-dihydrobenzo[d]oxazol-6-yl)-5-fluoropyrimidine-2,4-diamine], the IC50 was > 10000 nM.
Turning to `COc1cc(CF)cc(Nc2ncc(C)c(Nc3ccc4oc(=O)[nH]c4c3)n2)c1` [Compound I-274, 5-(2-(3-(fluoromethyl)-5-methoxyphenylamino)-5-methylpyrimidin-4-ylamino)benzo[d]oxazol-2(3H)-one], the IC50 (Homo sapiens, T-cell) is < 500 nM.
Turning to `Cc1cnc(Nc2ccc(-c3ccncc3)c(Cl)c2)nc1Nc1ccc2oc(=O)[nH]c2c1` [Compound I-329, N2-[3-chloro-4-(pyridin-4-yl)]phenyl 5-methyl-N4-(2-oxo-2,3-dihydro-1,3-benzoxazol-5-yl)-2,4-pyrimidinediamine], the IC50 fell in the range of 500 to 5000 nM.
The same measure, in the same setting: the result for `Cc1cnc(Nc2cc(OCC(C)C)cc(C(F)(F)F)c2)nc1Nc1ccc2oc(=O)[nH]c2c1` [Compound I-224, -(2-(3-isobutoxy-5-(trifluoromethyl)phenylamino)-5-methylpyrimidin-4-ylamino)benzo[d]oxazol-2(3H)-one] reads 500 to 5000 nM.
Turning to `Cc1ccc(C)c(Nc2ncc(C)c(Nc3ccc4oc(=O)[nH]c4c3)n2)c1` [Compound I-501, 5-(2-(2,5-dimethylphenylamino)-5-methylpyrimidin-4-ylamino)benzo[d]oxazol-2(3H)-one], the half-inhibitory concentration (IC50) (Homo sapiens, T-cell) fell in the range of 500 to 5000 nM.
Regarding `CCOC(=O)N1CCN(c2ccc(Nc3ncc(C)c(Nc4ccc5oc(=O)[nH]c5c4)n3)cc2)CC1` [Compound I-344, N2-[4-(4-ethoxycarbonyl)piperazino]phenyl-5-methyl-N4-(2-oxo-2,3-dihydro-1,3-benzoxazol-5-yl)-2,4-pyrimidinediamine], the IC50 is < 500 nM.
On to `Cc1cnc(Nc2cc(Cl)cc(C#N)c2)nc1Nc1ccc2oc(=O)[nH]c2c1` [Compound I-187, 3-Chloro-5-[5-methyl-4-(2-oxo-2,3-dihydro-benzooxazol-5-ylamino)-pyrimidin-2-ylamino]-benzonitrile], for which, for the setting “Homo sapiens, T-cell”, the IC50 is < 500 nM.
With `CC(=O)c1ccc(Nc2ncc(C)c(Nc3ccc4oc(=O)[nH]c4c3)n2)cc1` [Compound I-129, 5-[2-(4-Acetyl-phenylamino)-5-methyl-pyrimidin-4-ylamino]-3H-benzooxazol-2-one], under “Homo sapiens, T-cell”, the IC50 was < 500 nM.
As for `Cc1cnc(Nc2cc(C)c(C)c(C)c2)nc1Nc1ccc2oc(=O)[nH]c2c1` [Compound I-365, N2-(3,4,5-trimethyl)phenyl-5-methyl-N4-(2-oxo-2,3-dihydro-1,3-benzoxazol-5-yl)-2,4-pyrimidinediamine], the IC50 is < 500 nM.
In the case of `Cc1cnc(Nc2ccc(N3CCN(C)CC3)nc2)nc1Nc1ccc2c(c1)oc(=O)n2C` [II-23, N2-(6-(4-methylpiperazin-1-yl)pyridin-3-yl)-N4-(3-methyl-2-oxo-2,3-dihydrobenzo[d]oxazol-6-yl)-5-methylpyrimidine-2,4-diamine trifluoroacetate salt], the IC50 (Homo sapiens, T-cell) was < 500 nM.
Consider `O=c1[nH]c2cc(Nc3nc(Nc4cccc(N5CCOCC5)c4)ncc3F)ccc2o1` [Compound I-47, N4-(benzo[d]oxazol-2(3H)-on-5-yl)-N2-((3-morpholinyl)phenyl)-5-fluoropyrimidine-2,4-diamine], for which the half-inhibitory concentration (IC50) is < 500 nM.
As for `Cc1cnc(Nc2ccc(C(=O)N3CCCC3)cc2)nc1Nc1ccc2oc(=O)[nH]c2c1` [Compound I-247, 5-(5-methyl-2-(4-(pyrrolidine-1-carbonyl)phenylamino)pyrimidin-4-ylamino)benzo[d]oxazol-2(3H)-one], the IC50 (Homo sapiens, T-cell) is < 500 nM.
Still for that read-out and setting: the result for `Cc1cnc(Nc2cccc(C(=O)N3CCCC3)c2)nc1Nc1ccc2oc(=O)[nH]c2c1` [Compound I-246, 5-(5-methyl-2-(3-(pyrrolidine-1-carbonyl)phenylamino)pyrimidin-4-ylamino)benzo[d]oxazol-2(3H)-one] reads < 500 nM; that for `Cc1cnc(Nc2ccccc2)nc1Nc1ccc2oc(=O)[nH]c2c1` [Compound I-174, 5-(5-Methyl-2-phenylamino-pyrimidin-4-ylamino)-3H-benzooxazol-2-one], < 500 nM; that for `Cc1ccc(Nc2ncc(C)c(Nc3ccc4oc(=O)[nH]c4c3)n2)cc1C#N` [Compound I-131, 2-Methyl-5-[5-methyl-4-(2-oxo-2,3-dihydro-benzooxazol-5-ylamino)-pyrimidin-2-ylamino]-benzonitrile], < 500 nM.
Take `Cc1cnc(Nc2cc(F)c(N3CCN(C)CC3)c(F)c2)nc1Nc1ccc2oc(=O)[nH]c2c1` [Compound I-282, N2-[3,5-difluoro-4-(4-methylpiperazino)]phenyl-5-methyl-N4-(2-oxo-2,3-dihydro-1,3-benzoxazol-5-yl)-2,4-pyrimidinediamine]: the IC50 is < 500 nM.
Still for that read-out and setting: the result for `Cc1cc(Nc2ncc(C)c(Nc3ccc4oc(=O)[nH]c4c3)n2)ccc1N1CCN2CCC1CC2` [Compound I-120, N4-(benzo[d]oxazol-2(3H)-on-5-yl)-N2-((4-(1,4-diazabicyclo[3.2.2]nonan-4-yl)-3-methyl)phenyl)-5-methylpyrimidine-2,4-diamine] reads < 500 nM.
As to `Cc1cnc(Nc2c(C)cccc2C)nc1Nc1ccc2oc(=O)[nH]c2c1` [IV-60, 5-(2-(2,6-dimethylphenylamino)-5-methylpyrimidin-4-ylamino)benzo[d]oxazol-2(3H)-one], the IC50 (Homo sapiens, T-cell) fell in the range of 5000 to 10000 nM.
In the case of `Cc1cnc(Nc2cccc(NS(C)(=O)=O)c2)nc1Nc1ccc2oc(=O)n(C)c2c1` [Compound I-71, N2-((3-methylsulfonylamino)phenyl)-N4-(3-methyl-2-oxo-2,3-dihydrobenzo[d]oxazol-5-yl)-5-methylpyrimidine-2,4-diamine], the IC50 was < 500 nM.
The same measure, in the same setting: the result for `Cc1cnc(Nc2ccc(F)c(NS(C)(=O)=O)c2)nc1Nc1ccc2oc(=O)[nH]c2c1` [Compound I-87, N2-((4-fluoro-3-methylsulfonylamino)phenyl)-N4-(2-oxo-2,3-dihydrobenzo[d]oxazol-5-yl)-5-methylpyrimidine-2,4-diamine] reads < 500 nM.
In the case of `Cc1cnc(Nc2ccc(OCCC(C)C)cc2)nc1Nc1ccc2oc(=O)[nH]c2c1` [Compound I-197, 5-{5-Methyl-2-[4-(3-methyl-butoxy)-phenylamino]-pyrimidin-4-ylamino}-3H-benzooxazol-2-one], under “Homo sapiens, T-cell”, the IC50 was > 10000 nM.
On the same count and under the same terms, the result for `COc1cc(Nc2ncc(C)c(Nc3ccc4oc(=O)[nH]c4c3)n2)ccc1C(=O)N(C)C` [Compound I-267, 2-methoxy-N,N-dimethyl-4-(5-methyl-4-(2-oxo-2,3-dihydrobenzo[d]oxazol-5-ylamino)pyrimidin-2-ylamino)benzamide] reads < 500 nM.
The same measure, in the same setting: as for `Cc1cnc(Nc2ccc3[nH]nc(C)c3c2)nc1Nc1ccc2oc(=O)[nH]c2c1` [IV-49, 5-methyl-N2-(3-methylindazol-5-yl)-N4-(2-oxo-2,3-dihydro-1,3-benzoxazol-5-yl)-2,4-pyrimidinediamine], the figure is < 500 nM.
Take `Cc1cnc(Nc2ccc(N3CCN(C)CC3)c(C#N)c2)nc1Nc1ccc2oc(=O)[nH]c2c1` [Compound I-341, N2-[3-cyano-4-(4-methylpiperazino)]phenyl-5-methyl-N4-(2-oxo-2,3-dihydro-1,3-benzoxazol-5-yl)-2,4-pyrimidinediamine]: the IC50 is < 500 nM.
For the molecule `Cc1cc(C)cc(Nc2ncc(C)c(Nc3ccc4oc(=O)[nH]c4c3)n2)c1` [Compound I-302, N2-(3,5-dimethyl)phenyl-5-methyl-N4-(2-oxo-2,3-dihydro-1,3-benzoxazol-5-yl)-2,4-pyrimidinediamine], the IC50 was < 500 nM.
`COc1c(F)ccc(Nc2ncc(C)c(Nc3cc(C)c4oc(=O)[nH]c4c3)n2)c1F` [Compound I-507, 5-(2-(2,4-difluoro-3-methoxyphenylamino)-5-methylpyrimidin-4-ylamino)-7-methylbenzo[d]oxazol-2(3H)-one]: the 50% inhibitory concentration (IC50) (Homo sapiens, T-cell) is < 500 nM.
`Cc1cnc(Nc2ccc(N3CCC(F)(F)CC3)c(C(F)(F)F)c2)nc1Nc1ccc2oc(=O)[nH]c2c1` [Compound I-276, N2-[4-(4,4-difluoropiperidinyl)-3-trifluoromethyl]phenyl-5-methyl-N4-(2-oxo-2,3-dihydro-1,3-benzoxazol-5-yl)-2,4-pyrimidinediamine]: the IC50 was < 500 nM.
As for `COc1cc(Nc2ncc(C)c(Nc3ccc4oc(=O)[nH]c4c3)n2)ccc1C(=O)NC1CC1` [Compound I-220, N-cyclopropyl-2-methoxy-4-(5-methyl-4-(2-oxo-2,3-dihydrobenzo[d]oxazol-5-ylamino)pyrimidin-2-ylamino)benzamide], under “Homo sapiens, T-cell”, the IC50 was < 500 nM.
Still for that read-out and setting: the result for `COc1ccc(Nc2ncc(C)c(Nc3ccc4oc(=O)[nH]c4c3)n2)cc1` [Compound I-272, 5-(2-(4-methoxyphenylamino)-5-methylpyrimidin-4-ylamino)benzo[d]oxazol-2(3H)-one] reads < 500 nM.
As for `COC(=O)COc1cccc(Nc2ncc(C)c(Nc3ccc4oc(=O)[nH]c4c3)n2)c1` [Compound I-305, N2-(3-methoxycarbonylmethoxy)phenyl-5-methyl-N4-(2-oxo-2,3-dihydro-1,3-benzoxazol-5-yl)-2,4-pyrimidinediamine], the IC50 lay in the range of 500 to 5000 nM.

(Values after patent publication US10005767B2, “Compositions and methods for inhibition of the JAK pathway” (Rigel Pharmaceuticals, Inc., priority 2009, dated 2018).)
